Reference: patent US6780887B1, “Anti-ischemic compounds” (Societe de Conseils de Recherches et d'Applications …, priority 1999, dated 2004)
Entries after “also recorded” stand apart in the source; their conditions may differ.

Key:
[1] = test system: purified mitochondria obtained from rat livers; assay: In vitro mitochondrial respiration (stages III and IV, RCR) of purified mitochondria preincubated with compounds; type: biochemical; conditions: for RCR increase (*): in % relative to the control brought to 100%; for Concentration (optimum concentration at which the effect was observed): RCR increase; for Concentration of maximum/optimal effect on RCR (optimal concentration in pre-incubation): rat liver mitochondria preincubated with compound; for Effect on mitochondria RCR (in words) / Effect on respiration stage IV (in words): in vitro
Procedure: The mitochondria are isolated according to the method described by Nowicki et al., J. of Cerebral Blood Flow and Metabolism 2, p. […] The mitochondrial respiration is measured by an oxygen electrode connected to a recorder. The RCR represents the respiratory control, and represents the ratio of the oxygen consumption in the presence of an endogenous substrate (glutamate/malate) to the consumption after ADP phosphorylation in ATP.
The RCR has been subsequently calculated.

[2] = test system: endothelial cells of the human umbilical vein; assay: Protection of ATP content in endothelial cells incubated under hypoxia; type: cell-based; conditions: for Average maximum protection of the decrease in ATP content induced by hypoxia: endothelial cells
From the text: This variability is inherent to the experimental model. Indeed, for each experiment, a different culture is used from different umbilical cord isolated cells and there is a behaviour variability of the cells from one cord to another.

hepatic mitochondria = assay: In vivo effect on liver mitochondria RCR after treatment of rats per os for 5 days; parameters: species or system rat; conditions: for Effect on respiration stage IV (in words): liver mitochondria
Procedure: Following the treatment, the rats are sacrificed. The mitochondria are isolated from the liver and their respiratory activity is measured every 15 minutes for the 75 minutes following the isolation procedure.

[3] = Stability in human plasma (GC); type: in vitro ADME; conditions: 24 hours, 37° C.
Procedure: The compounds of examples 1 and 2 have been submitted to stability tests in order to evaluate their behaviour when in contact with plasma after a 3 and 24 hour incubation at a temperature of 37° C. These tests have been performed using GC following the evolution of chromatograms of the different esters compared to an internal standard as a function of time.
The injection of GC/MF pure products has been performed in the following conditions:
injection temperature: 250° C.
initial temperature: 40° C.
final temperature: 250° C.
temperature gradient: 10° C./mn
The different compounds have been prepared as follows: 10 μl of pure compound have been dissolved in 100 μl plasma at a temperature of 37° C. The resulting solution is stirred. After a 3 or 24 hour period of time, 5 μl of internal standard (N-benzylamine) and 1 ml ether are added to the solution maintained at 37° C. The sample is centrifuged for 10 minutes at a rate of 13,000 rpm. 1 μl of the supernatant phase (ether phase) is injected in GC. The sample is then GC analyzed. […] No other peak optionally corresponding to metabolization products is observed.

[4] = test system: neutrophil adherence to the endothelial cells; assay: Neutrophil adherence to endothelial cells incubated under hypoxia; type: cell-based, human; conditions: 10^−8 mol/l
Procedure: After incubation, the cells are co-incubated with a non stimulated human neutrophil suspension.

heart mitochondria = assay: In vivo effect on heart mitochondria RCR after treatment of rats per os for one day; parameters: species or system rat
Procedure: The following day, the rats are sacrificed and their mitochondria are isolated from the heart. Their respiratory activity is measured every 15 minutes for the 75 minutes following the isolation procedure.

Promyelocyte cells = assay: Etoposide-induced apoptosis in promyelocyte cells; type: cell-based; conditions: cells incubated with etoposide
Procedure: Promyelocyte cells are incubated in the presence of apoptosis-inducing agents like the etoposide, a type II topoisomerase inhibitor. After incubation, different parameters indicative of the apoptosis are detectable: caspase activation, cytochrome C release by the mitochondria, DNA fragmentation, etc.

[5] = 10^−7 M (optimum concentration)
[6] = 10^−6 M (optimum concentration)
[7] = endothelial cells under hypoxia

CCOC(=O)CN(C)C(=O)C1CCCCC1 [Ethyl N-methyl-N-cyclohexamido ethanoate, Ethyl N-methyl -N-cyclohexamido Ethanoate]
RCR increase (*) [1, 5]: 15% | Concentration (optimum concentration at which the effect was observed) ([1]; rat liver mitochondria): 10^−7 M

O=C(CC(=O)Nc1ccccc1)Nc1ccccc1 [N,N′-diphenylmalonamide, N-N′-diphenyl malonamide]
RCR increase (*) [1, 5]: 5% | Concentration (optimum concentration at which the effect was observed) ([1]; rat liver mitochondria): 10^−7 M

O=C(CC(=O)O[C@@H]1C=CCC1)O[C@@H]1C=CCC1 [di-(S)-cyclopenten-2-yl malonate, di-(S)-2-cyclopenten-2-yl malonate]
RCR increase (*) [1, 6]: 18% | Concentration (optimum concentration at which the effect was observed) ([1]; rat liver mitochondria): 10^−6 M

C=CCOC(=O)C12CC1COC2=O (centres unmarked) [example 2, 2-propenyl-3-Oxa-2-Oxobicyclo[3.1.0]-hexane-1-carboxylate]
Average maximum protection of the decrease in ATP content induced by hypoxia ([2]; 10^−4 mol/l): 92.5% | Concentration at which ATP protection becomes negligible [2, 7]: 10^−6 mol/l | Activity on liver mitochondria RCR (in words) (hepatic mitochondria; 5 days, 0.18 mg/kg): weakly active | Mitochondria RCR increase (maximum) (hepatic mitochondria; 5 days, 3.6 mg/kg, liver): 17% | Effect on respiration stage IV (in words) (hepatic mitochondria; 5 days): decrease | Stability in human plasma (GC peak of compound) [3]: not found any more | Maximum inhibition of hypoxia induced neutrophil adherence increase [4]: 71% | Heart mitochondria RCR increase (heart mitochondria; one day treatment, 3.6 mg/kg): 56% | Optimal concentration in pre-incubation (mass concentration) [1]: 0.0183 µg/mL | Concentration of maximum/optimal effect on RCR (optimal concentration in pre-incubation) [1]: 10^−7 mol/l | Effect on mitochondria RCR (in words) ([1]; rat liver mitochondria): have an action on the RCR | Effect on respiration stage IV (in words) ([1]; rat liver mitochondria): decrease effect

Dicyclopenten-2-yl malonate [example 1]
Average maximum protection of the decrease in ATP content induced by hypoxia ([2]; 10^−4 mol/l to 10^−5 mol/l): 92.1% | Concentration at which ATP protection becomes negligible [2, 7]: 10^−8 mol/l | Protection of the decrease in ATP content induced by hypoxia (in words) [2, 7]: able to protect reproducibly | Hepatic mitochondria RCR increase (hepatic mitochondria; 5 day treatment, 2.36 mg/kg): 25% | RCR versus control (in words) (hepatic mitochondria; 5 days, dose higher than 2.36 mg/kg): falls slightly below the control values | Effect on respiration stage IV (in words) (hepatic mitochondria; 5 days): clear decrease | Stability in human plasma (GC peak of compound) [3]: still observed | Apoptosis induction (in words) (Promyelocyte cells): apoptosis induction inhibition is observed | Caspase 3 activation (Promyelocyte cells): inhibited | Cytochrome C release by the mitochondria (Promyelocyte cells): inhibited | DNA fragmentation (Promyelocyte cells): inhibited | Heart mitochondria RCR increase (heart mitochondria; one-day treatment, 2.36 mg/kg): 41% | Concentration at which the RCR effect becomes negligible ([1]; rat liver mitochondria): 10^−9 mol/l | Concentration of maximum/optimal effect on RCR (optimal concentration in pre-incubation) [1]: 10^−6 mol/l | Effect on mitochondria RCR (in words) ([1]; rat liver mitochondria): have an action on the RCR; also recorded: significatively increases | Effect on respiration stage IV (in words) ([1]; rat liver mitochondria): strongly decreases

Ethyl 2,6-dimethyl-N-phenylamido Ethanoate
RCR increase (*) [1, 6]: 13% | Concentration (optimum concentration at which the effect was observed) ([1]; rat liver mitochondria): 10^−6 M

Ethyl N-phenylamido Ethanoate [Ethyl N-phenlyamido ethanoate]
RCR increase (*) [1, 6]: 6.6% | Concentration (optimum concentration at which the effect was observed) ([1]; rat liver mitochondria): 10^−6 M
